These compounds were tested against USP7 (Homo sapiens, UniProt Q93009) (assay: USP7 inhibitory potency (IC50)).
Assay type: biochemical
Experimental: Activity for compounds described herein is provided in Table 2, wherein potency levels are provided as follows: (Potency: USP7 IC50: A<0.01 μM; B=0.01-0.1 μM; C=>0.1 μM.

Chain of USP7 (Q93009 whole entry): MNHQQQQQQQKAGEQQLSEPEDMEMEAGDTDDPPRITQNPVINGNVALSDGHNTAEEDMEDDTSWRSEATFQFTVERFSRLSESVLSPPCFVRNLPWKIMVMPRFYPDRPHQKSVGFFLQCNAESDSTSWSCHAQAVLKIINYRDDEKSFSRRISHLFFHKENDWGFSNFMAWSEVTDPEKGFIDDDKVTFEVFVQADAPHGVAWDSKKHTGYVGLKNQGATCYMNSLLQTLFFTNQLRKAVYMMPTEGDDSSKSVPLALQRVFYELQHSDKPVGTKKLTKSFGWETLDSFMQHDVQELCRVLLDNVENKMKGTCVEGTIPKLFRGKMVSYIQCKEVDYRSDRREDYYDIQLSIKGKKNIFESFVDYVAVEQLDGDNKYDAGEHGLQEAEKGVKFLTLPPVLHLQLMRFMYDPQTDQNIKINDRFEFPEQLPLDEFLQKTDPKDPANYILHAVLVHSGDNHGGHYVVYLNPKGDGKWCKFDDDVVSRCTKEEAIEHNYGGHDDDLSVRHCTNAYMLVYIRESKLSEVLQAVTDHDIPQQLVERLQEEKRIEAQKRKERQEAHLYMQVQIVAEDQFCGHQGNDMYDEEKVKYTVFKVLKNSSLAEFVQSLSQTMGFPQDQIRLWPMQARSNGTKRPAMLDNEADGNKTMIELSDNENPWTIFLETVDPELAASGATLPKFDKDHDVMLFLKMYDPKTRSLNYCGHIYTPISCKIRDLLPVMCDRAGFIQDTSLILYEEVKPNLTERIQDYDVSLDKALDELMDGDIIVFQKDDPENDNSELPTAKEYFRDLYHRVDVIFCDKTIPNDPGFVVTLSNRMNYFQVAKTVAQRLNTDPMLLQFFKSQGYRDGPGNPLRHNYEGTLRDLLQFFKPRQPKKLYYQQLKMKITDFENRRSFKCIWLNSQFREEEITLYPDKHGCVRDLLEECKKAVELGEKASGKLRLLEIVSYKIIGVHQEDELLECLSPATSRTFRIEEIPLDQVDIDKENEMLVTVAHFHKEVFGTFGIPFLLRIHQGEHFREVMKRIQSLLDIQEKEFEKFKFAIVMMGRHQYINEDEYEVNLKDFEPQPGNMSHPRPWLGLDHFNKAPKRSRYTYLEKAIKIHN

| IC50 [nM] | Structure (SMILES) |
| --- | --- |
| < 10 | Cc1cc(Cl)cc(-c2ncnc3cc(CN4C(=O)CN(C)C4=O)sc23)c1CN1[C@@H](C)CNC[C@@H]1C [Example 87, 3-((4-(5-chloro-2-(((2S,6S)-2,6-dimethylpiperazin-1-yl)methyl)-3-methylphenyl)thieno[3,2-d]pyrimidin-6-yl)methyl)-1-methylimidazolidine-2,4-dione] |
| < 10 | Cc1cc(Cl)cc(-c2ncnc3cc(Cn4c(=O)ccn(C)c4=O)sc23)c1CC1CNCC2(CCC2)O1 (centres unmarked) [Example 223, 3-((4-(2-((5-oxa-8-azaspiro[3.5]nonan-6-yl)methyl)-5-chloro-3-methylphenyl)thieno[3,2-d]pyrimidin-6-yl)methyl)-1-methylpyrimidine-2,4(1H,3H)-dione] |
| < 10 | Cn1ccc(=O)n(Cc2cc3nccc(-c4cc(Cl)cc(Cl)c4CC4CNCCO4)c3s2)c1=O (centres unmarked) [Example 142, 3-((7-(3,5-dichloro-2-(morpholin-2-ylmethyl)phenyl)thieno[3,2-b]pyridin-2-yl)methyl)-1-methylpyrimidine-2,4(1H,3H)-dione] |
| < 10 | Cc1cc(Cl)cc(-c2ccnc3cc(CN4C(=O)C5CC5C4=O)sc23)c1CN1CCCNCC1C (centres unmarked) [Example 38, 3-((7-(5-chloro-3-methyl-2-((2-methyl-1,4-diazepan-1-yl)methyl)phenyl)thieno[3,2-b]pyridin-2-yl)methyl)-3-azabicyclo[3.1.0]hexane-2,4-dione] |
| > 100 | Cc1cc(Cl)cc(-c2ccnc3cc(Cn4c(=O)ccn(CC(F)(F)F)c4=O)sc23)c1CN1CCNC(=O)C1 [Example 1, 3-((7-(5-chloro-3-methyl-2-((3-oxopiperazin-1-yl)methyl)phenyl)thieno[3,2-b]pyridin-2-yl)methyl)-1-(2,2,2-trifluoroethyl)pyrimidine-2,4(1H,3H)-dione] |
| > 100 | C[C@H]1CNCCN1Cc1c(F)cc(F)cc1-c1ncnc2cc(CN3C(=O)C4CC4C3=O)sc12 (stereo partly drawn) [Example 74, 3-((4-(3,5-difluoro-2-(((S)-2-methylpiperazin-1-yl)methyl)phenyl)thieno[3,2-d]pyrimidin-6-yl)methyl)-3-azabicyclo[3.1.0]hexane-2,4-dione] |
| < 10 | Cc1cc(Cl)cc(-c2ncnc3cc(CN4C(=O)c5ccccc5C4=O)sc23)c1CC1CNCCO1 (centres unmarked) [Example 179, 2-((4-(5-chloro-3-methyl-2-(morpholin-2-ylmethyl)phenyl)thieno[3,2-d]pyrimidin-6-yl)methyl)isoindoline-1,3-dione] |
| < 10 | Cc1cc(Cl)cc(-c2ccnc3cc(CN4C(=O)C5C(C4=O)C5(C)C)sc23)c1CN1[C@@H](C)CNC[C@@H]1C (stereo partly drawn) [Example 28, 3-((7-(5-chloro-2-(((2S,6S)-2,6-dimethylpiperazin-1-yl)methyl)-3-methylphenyl)thieno[3,2-b]pyridin-2-yl)methyl)-6,6-dimethyl-3-azabicyclo[3.1.0]hexane-2,4-dione] |
| < 10 | Cc1cc(Cl)cc(-c2ccnc3cc(CN4C(=O)C5CC5C4=O)sc23)c1CC1CNCCOC1 (centres unmarked) [Example 112, 3-((7-(2-((1,4-oxazepan-6-yl)methyl)-5-chloro-3-methylphenyl)thieno[3,2-b]pyridin-2-yl)methyl)-3-azabicyclo[3.1.0]hexane-2,4-dione] |
| < 10 | O=C1CCC(=O)N1Cc1cc2nccc(-c3cc(Cl)cc(Cl)c3CC3CNCCO3)c2s1 (centres unmarked) [Example 127, 1-((7-(3,5-dichloro-2-(morpholin-2-ylmethyl)phenyl)thieno[3,2-b]pyridin-2-yl)methyl)pyrrolidine-2,5-dione] |
| < 10 | Cc1cc(Cl)cc(-c2ccnc3cc(CN4C(=O)CCC4=O)sc23)c1CN1[C@@H](C)CN(C(C)C)C[C@@H]1C [Example 30, 1-((7-(5-chloro-2-(((2S,6S)-4-isopropyl-2,6-dimethylpiperazin-1-yl)methyl)-3-methylphenyl)thieno[3,2-b]pyridin-2-yl)methyl)pyrrolidine-2,5-dione] |
| < 10 | Cc1cc(Cl)cc(-c2ncnc3cc(CN4C(=O)C5CC5C4=O)sc23)c1CN1[C@@H](C)CN(C(=O)C(F)(F)F)C[C@@H]1C (stereo partly drawn) [Example 84, 3-((4-(5-chloro-2-(((2S,6S)-2,6-dimethyl-4-(2,2,2-trifluoroacetyl)piperazin-1-yl)methyl)-3-methylphenyl)thieno[3,2-d]pyrimidin-6-yl)methyl)-3-azabicyclo[3.1.0]hexane-2,4-dione] |
| < 10 | Cc1cc(Cl)cc(-c2ccnc3cc(CN4C(=O)C5C(C4=O)C5(C)C)sc23)c1CC1CNCCO1 (centres unmarked) [Example 103, 3-((7-(5-chloro-3-methyl-2-(morpholin-2-ylmethyl)phenyl)thieno[3,2-b]pyridin-2-yl)methyl)-6,6-dimethyl-3-azabicyclo[3.1.0]hexane-2,4-dione] |
| < 10 | Cc1cc(Cl)cc(-c2ccnc3cc(CN4C(=O)CCCC4=O)sc23)c1CC1CNCCO1 (centres unmarked) [Example 107, 1-((7-(5-chloro-3-methyl-2-(morpholin-2-ylmethyl)phenyl)thieno[3,2-b]pyridin-2-yl)methyl)piperidine-2,6-dione] |
| < 10 | CCN1CCN(Cc2c(C)cc(Cl)cc2-c2ccnc3cc(CN4C(=O)C5C(C4=O)C5(C)C)sc23)[C@@H](C)C1 (stereo partly drawn) [Example 24, 3-((7-(5-chloro-2-(((S)-4-ethyl-2-methylpiperazin-1-yl)methyl)-3-methylphenyl)thieno[3,2-b]pyridin-2-yl)methyl)-6,6-dimethyl-3-azabicyclo[3.1.0]hexane-2,4-dione] |
| < 10 | Cc1cc(Cl)cc(-c2ncnc3cc(CN4C(=O)COC4=O)sc23)c1CC1CNCCO1 (centres unmarked) [Example 178, 3-((4-(5-chloro-3-methyl-2-(morpholin-2-ylmethyl)phenyl)thieno[3,2-d]pyrimidin-6-yl)methyl)oxazolidine-2,4-dione] |
| 10 to 100 | C[C@H]1CNCCN1Cc1ccc(Cl)cc1-c1ncnc2cc(CN3C(=O)C4CC4C3=O)sc12 (stereo partly drawn) [Example 64, 3-((4-(5-chloro-2-(((S)-2-methylpiperazin-1-yl)methyl)phenyl)thieno[3,2-d]pyrimidin-6-yl)methyl)-3-azabicyclo[3.1.0]hexane-2,4-dione] |
| > 100 | COCc1cc2ncnc(-c3cc(Cl)cc(C)c3C[C@@H]3CNCC(C)(C)O3)c2s1 [Example 269, (R)-6-(4-chloro-2-(6-(methoxymethyl)thieno[3,2-d]pyrimidin-4-yl)-6-methylbenzyl)-2,2-dimethylmorpholine] |
| 10 to 100 | Cc1cc(Cl)cc(-c2ncnc3cc(CN4C(=O)CN(CCCC(=O)O)C4=O)sc23)c1C[C@@H]1CNCCO1 [Example 264, (R)-4-(3-((4-(5-chloro-3-methyl-2-(morpholin-2-ylmethyl)phenyl)thieno[3,2-d]pyrimidin-6-yl)methyl)-2,4-dioxoimidazolidin-1-yl)butanoic acid] |
| < 10 | Cc1cc(Cl)cc(-c2ncnc3cc(Cn4c(=O)ccn(C)c4=O)sc23)c1CC1CNCC(C)(C)O1 (centres unmarked) [Example 192, 3-((4-(5-chloro-2-((6,6-dimethylmorpholin-2-yl)methyl)-3-methylphenyl)thieno[3,2-d]pyrimidin-6-yl)methyl)-1-methylpyrimidine-2,4(1H,3H)-dione] |
| < 10 | Cc1cc(Cl)cc(-c2ccnc3cc(CN4C(=O)CCC4=O)sc23)c1CN1CCNC[C@@H]1C [Example 8, (S)-1-((7-(5-chloro-3-methyl-2-((2-methylpiperazin-1-yl)methyl)phenyl)thieno[3,2-b]pyridin-2-yl)methyl)pyrrolidine-2,5-dione] |
| < 10 | Cc1cc(Cl)cc(-c2ccnc3cc(Cn4c(=O)ccn(CC(F)(F)F)c4=O)sc23)c1CN1CCNCC1 [Example 2, 3-((7-(5-chloro-3-methyl-2-(piperazin-1-ylmethyl)phenyl)thieno[3,2-b]pyridin-2-yl)methyl)-1-(2,2,2-trifluoroethyl)pyrimidine-2,4(1H,3H)-dione] |
| < 10 | O=C1CCC(=O)N1Cc1cc2ncnc(-c3cc(Cl)cc(Cl)c3CC3CNCCO3)c2s1 (centres unmarked) [Example 204, 1-((4-(3,5-dichloro-2-(morpholin-2-ylmethyl)phenyl)thieno[3,2-d]pyrimidin-6-yl)methyl)pyrrolidine-2,5-dione] |
| < 10 | Cc1cc(Cl)cc(-c2ccnc3cc(CN4C(=O)C5CCC5C4=O)sc23)c1CC1CNCCO1 (centres unmarked) [Example 110, 3-((7-(5-chloro-3-methyl-2-(morpholin-2-ylmethyl)phenyl)thieno[3,2-b]pyridin-2-yl)methyl)-3-azabicyclo[3.2.0]heptane-2,4-dione] |
| > 100 | Cc1cc(Cl)cc(-c2ncnc3cc(CN4CCOCC4=O)sc23)c1CC1CNCCO1 (centres unmarked) [Example 172, 4-((4-(5-chloro-3-methyl-2-(morpholin-2-ylmethyl)phenyl)thieno[3,2-d]pyrimidin-6-yl)methyl)morpholin-3-one] |
| < 10 | Cc1cc(Cl)cc(-c2ccnc3cc(CN4C(=O)C5CC5C4=O)sc23)c1CC1CNCC2(CCC2)O1 (centres unmarked) [Example 131, 3-((7-(2-((5-oxa-8-azaspiro[3.5]nonan-6-yl)methyl)-5-chloro-3-methylphenyl)thieno[3,2-b]pyridin-2-yl)methyl)-3-azabicyclo[3.1.0]hexane-2,4-dione] |
| 10 to 100 | Cc1cc(Cl)cc(-c2ncnc3cc(CN4C(=O)CCC4=O)sc23)c1CN1C[C@@H](C)NC[C@@H]1C [Example 68, 1-((4-(5-chloro-2-(((2S,5R)-2,5-dimethylpiperazin-1-yl)methyl)-3-methylphenyl)thieno[3,2-d]pyrimidin-6-yl)methyl)pyrrolidine-2,5-dione] |
| < 10 | Cc1cc(Cl)cc(-c2ncnc3cc(CN4C(=O)C5CC5C4=O)sc23)c1CC1CNCC2(CCC2)O1 (centres unmarked) [Example 207, 3-((4-(2-((5-oxa-8-azaspiro[3.5]nonan-6-yl)methyl)-5-chloro-3-methylphenyl)thieno[3,2-d]pyrimidin-6-yl)methyl)-3-azabicyclo[3.1.0]hexane-2,4-dione] |
| < 10 | CCN1CC(=O)N(Cc2cc3ncnc(-c4cc(Cl)cc(C)c4CN4C[C@@H](C)NC[C@@H]4C)c3s2)C1=O [Example 83, 3-((4-(5-chloro-2-(((2S,5R)-2,5-dimethylpiperazin-1-yl)methyl)-3-methylphenyl)thieno[3,2-d]pyrimidin-6-yl)methyl)-1-ethylimidazolidine-2,4-dione] |
